The text below walks through data of patent US20240300940A1, “Phenothiazinyl Compounds and Uses” (Prosetta Biosciences, Inc., priority 2023, published 2024).

In one experiment the test system is NL4-3 Rluc virus. Description: microbe, parasite or virus in culture. In kind it is cell-based, HIV. Conditions: MT-2 cells, MOI 0.02, 96 hours.
Another experiment deals with Hennes-20 cells. As to the kind of experiment: Hennes-20 oncology screen. In kind it is cell-based. To be noted: 72 h, alamar Blue. On the procedure: To screen compounds for oncology activity Hennes-20 cells were plated at low (500 cells/well) versus high (15,000 cells/well) densities and treated with DMSO (vehicle) or dose-titration of compounds. The rationale for this screen is that an intrinsically toxic compound should kill cells regardless of density, including in Hennes-20 cells. However, a compound that selectively triggers the arrest of proliferation will inhibit cell growth when plated at a low density will appear cytotoxic due to inhibition of cell growth when plated at a low density but will appear non-toxic to cells plated at a high density where the cells are approaching confluence and the readout detected by a cell viability assay is already close to the maximum.
To conduct the Hennes-20 screen, two 96 well plates were seeded with Hennes 20 cells in parallel where one was plated at a density of 500 cells/well and the other was plated at a density of 15,000 cells/well. 90 uL of minimum essential media was added to each well and plates were placed in a 37 degrees Celsius incubator for 24 hours. The next day, 10 ul of media containing dilutions of compound in DMSO were added to each plate. Six wells on each plate received 10 ul of media containing only DMSO. Each well was gently mixed 5 times with a 100 ul pipette. Plates were incubated at 37 degrees Celsius for 72 hours and then 10 uL of alamar Blue was added to each well. Wells were mixed 5 times then incubated at 37 degrees Celsius for […]. Plates were then read at 530/590.
The rationale for the screen is as follows: Hennes-20 cells lack endogenous apoptosis. Cells plated at low density will proliferate and approach confluence in 72 hrs. A drug that arrests proliferation may have its proliferation blocking effect masked by the triggering of endogenous apoptosis. However, in the Hennes line, lacking endogenous apoptosis, such an arrest is manifest as a dose-dependent maintenance at low cell density. Since the high-density cells are plated close to confluence, the difference between Alamar Blue cell survival readings after 72 hrs reflects the ability of the drug to block proliferation in the low density-plated cells. In the high density-plated cells any diminution of Alamar Blue readout vs vehicle control is due to intrinsic toxicity, not proliferation arrest, since cells were already at confluence. Thus, a compound that appears toxic (low Alamar Blue readings after 72 hrs) on the low-density plate, but which appears non-toxic (high Alamar Blue readings after 72 hrs) on the high-density plate, must be arresting proliferation, since intrinsic compound toxicity should be observed at both low and high cell densities, not selectively on the low-density plate.
Background: Alamar Blue is a resazurin reagent that responds to reducing activity.

The next experiment deals with VACV-LUC virus. Description: microbe, parasite or virus in culture. It is filed as cell-based. To be noted: Orthopoxvirus vaccinia, HeLa, 2 h.
In another experiment the test system is E. coli ATCC25922. As to the kind of experiment: MIC assay, serial dilution. To be noted: for MIC: Escherichia coli.
The subject of the next experiment is RABV ERA strain. As to the kind of experiment: organism not typed. It is filed as cell-based.
The subject of the next experiment is C. albicans ATCC 24433. Description: Antifungal MIC assay. Conditions: Candida albicans, ATCC24433.
The subject of the next experiment is S. aureus ATCC25923. As to the kind of experiment: MIC assay, serial dilution. Conditions: Staphylococcus aureus.
Another experiment has as its system A. baumannii ATCC19606. Description: MIC assay, serial dilution. Conditions: Acinetobacter baumannii.
Where [1] appears, read: Human immunodeficiency virus 1, NL43, MT2, 96 h.
Where [2] appears, read: ATCC25922, read-out: Anti-bacterial Activity (E. coli MIC (uM)), E. coli, Table 5.

Structures are written as SMILES. Where two headings read alike, the source gives them in different places.

For orientation: EC50 means the concentration giving half of the maximal effect. As for `CCc1cc(N2CCCNCC2)cc2[s+]c3cc(N4CCCNCC4)cc(C)c3nc12` [Compound 16], in the experiment with NL4-3 Rluc virus (setting [1]), the midpoint of the response, the EC50, lay at 4.8 µM.

In general, MIC refers to the lowest concentration that inhibits growth of the organism. With `CCc1cc(N(C)C)cc2[s+]c3cc(N4CCCC4)cc(CC)c3nc12` [Compound 36], the EC50 in the experiment with Hennes-20 cells is under 0.5 µM; in the experiment on NL4-3 Rluc virus (setting [1]), 0.0076 µM; in the experiment on VACV-LUC virus, under 1.67 µM. The MIC with E. coli ATCC25922 (setting [2]) was found to be 1.6 µM.

Turning to `CCc1cc(N2CCCC2)cc2[s+]c3cc(N4CCCC4)cc(C)c3nc12` [Compound 45], the EC50 is under 2.5 µM in the experiment with Hennes-20 cells, 0.0031 µM in the experiment with NL4-3 Rluc virus (setting [1]) and under 1.67 µM in the experiment on VACV-LUC virus. Further, the MIC with E. coli ATCC25922 (setting [2]) was 0.8 µM.

With `CCc1cc(N2CCCC2)cc2[s+]c3cc(N4CCCC4)cc(C(C)C)c3nc12` [Compound 46], the results for the EC50 in the experiment on Hennes-20 cells, in the experiment with NL4-3 Rluc virus (setting [1]) and in the experiment with RABV ERA strain were under 0.5 µM, 0.003 µM and under 0.005 µM, respectively. The “Anti-bacterial Activity (E. coli MIC (uM))” value in the experiment on E. coli ATCC25922 (E. coli, Table 5) amounted to 3.1 µM.

With `CCc1cc(N2CCCC2)cc2[s+]c3cc(N4CCC(C)C4)cc(C)c3nc12` (stereo not drawn) [Compound 57], in the experiment with NL4-3 Rluc virus (setting [1]), the EC50 was found to be 17 µM. Further, the MIC in the experiment with E. coli ATCC25922 (setting [2]) came out at 12.5 µM.

For `Cc1cc(C(C)C)cc2[s+]c3cc(N(C)C)cc(C)c3nc12` [Compound 59], the EC50 with Hennes-20 cells was under 0.5 µM; with VACV-LUC virus it was 0.56 µM.

With `CN(C)c1ccc2nc3c(C(C)(C)C)cc(N(C)C)cc3[s+]c2c1` [Compound 66], the EC50 in the experiment with Hennes-20 cells is under 0.5 µM; in the experiment on VACV-LUC virus, 1.67 µM.

Take `c1cc2nc3ccc(N4CCCC4)cc3[s+]c2cc1N1CCCC1` [Compound 68]: the EC50 in the experiment with Hennes-20 cells is under 0.5 µM; in the experiment on NL4-3 Rluc virus (setting [1]) it was 0.042 µM; with VACV-LUC virus, under 0.56 µM. Moreover, the MIC with E. coli ATCC25922 (setting [2]) came out at 6.3 µM.

In the case of `CCc1cc(NC(C)C)cc2[s+]c3cc(N4CCCN(C(=O)OC(C)(C)C)CC4)cc(CC)c3nc12` [Compound 69], the values for the EC50 in the experiment on Hennes-20 cells and in the experiment with VACV-LUC virus were under 0.5 µM and under 5 µM, respectively.

`CCc1cc(N2CCCC2)cc2[s+]c3cc(N(C)C)cc(C(C)C)c3nc12` [Compound 73]: the EC50 is 0.5 µM with Hennes-20 cells, 0.0018 µM with NL4-3 Rluc virus (setting [1]), 1.67 µM in the experiment with VACV-LUC virus and under 0.5 µM with RABV ERA strain. In addition, in the experiment on E. coli ATCC25922 (setting [2]), the MIC stood at 100 µM.

As for `CCc1cc(N2CCCCCC2)cc2[s+]c3cc(N(C)C4CCNCC4)cc(CC)c3nc12` [Compound 77], the results for the EC50 with Hennes-20 cells and in the experiment with VACV-LUC virus were under 2.5 µM and 1.67 µM, respectively. In addition, in the experiment on E. coli ATCC25922 (setting [2]), the MIC was found to be 3.1 µM.

`CCc1cc(N(C)C)cc2[s+]c3cc(N4CCCNCC4)cc(CC)c3nc12` [Compound 83]: the EC50 in the experiment on Hennes-20 cells was under 12.5 µM; in the experiment on NL4-3 Rluc virus, 0.27 µM; with VACV-LUC virus it was 1.67 µM; in the experiment on RABV ERA strain, under 0.5 µM. Besides, the MIC with E. coli ATCC25922 (setting [2]) came out at 100 µM.

In the case of `CCc1cc(N(C)C)cc2[s+]c3cc(N4CCCNCC4)cc(CC)c3nc12` [Compound 87], the response in the experiment on NL4-3 Rluc virus was half-maximal at 10 µM (EC50).

Take `CCc1cc(N2CCNCC2)cc2[s+]c3cc(N4CCNCC4)cc(C)c3nc12` [Compound 92]: the concentration for a half-maximal effect (EC50) in the experiment with Hennes-20 cells is over 12.5 µM; with NL4-3 Rluc virus (setting [1]), 4.3 µM.

`CCc1cc(N2CCOCC2)cc2[s+]c3cc(N4CCOCC4)cc(C)c3nc12` [Compound 97] came in with an EC50 with NL4-3 Rluc virus (setting [1]) of 0.23 µM. The MIC in the experiment with E. coli ATCC25922 (setting [2]) turned out to be 25 µM.

In the experiment with NL4-3 Rluc virus (setting [1]), `CCc1cc(N2CCC(N(C)C)CC2)cc2[s+]c3cc(N4CCC(N(C)C)CC4)cc(C)c3nc12` [Compound 98] had an EC50 of 38 µM.

The compound `CCc1cc(N2CCSCC2)cc2[s+]c3cc(N4CCSCC4)cc(C)c3nc12` [Compound 99] yielded a half-maximal effective concentration (EC50) in the experiment on NL4-3 Rluc virus (setting [1]) of 26 µM. Moreover, the MIC in the experiment with E. coli ATCC25922 (setting [2]) worked out at 6.3 µM.

Compound `CCc1cc(N2CCC(N)CC2)cc2[s+]c3cc(N4CCCCC4)cc(C)c3nc12` [Compound 100] came in with an EC50 with NL4-3 Rluc virus (setting [1]) of 33 µM. In addition, the MIC in the experiment with E. coli ATCC25922 (setting [2]) was found to be 25 µM.

For the compound `CCN(CC)c1cc(N2CCCC2)cc2[s+]c3cc(N4CCCC4)ccc3nc12` [Compound 117], the midpoint of the response in the experiment on Hennes-20 cells, the EC50, lay at 12.5 µM. Further, the MIC against C. albicans ATCC 24433 was found to be 1.6 µM; with S. aureus ATCC25923 it was 1.6 mg/L; with E. coli ATCC25922 (ATCC25922, E. coli ATCC25922), 25 mg/L; against A. baumannii ATCC19606, 12.5 mg/L.

For `c1cc2nc3c(N4CCSC4)cc(N4CCCC4)cc3[s+]c2cc1N1CCCC1` [Compound 118], in the experiment on Hennes-20 cells, the EC50 turned out to be 12.5 µM. In addition, the MIC with C. albicans ATCC 24433 was 3.1 µM; in the experiment on S. aureus ATCC25923, 6.25 mg/L; with E. coli ATCC25922 (ATCC25922, E. coli ATCC25922) it was over 100 mg/L; against A. baumannii ATCC19606, over 100 mg/L.

`c1cc2nc3c(N4CCCNCC4)cc(N4CCCC4)cc3[s+]c2cc1N1CCCC1` [Compound 119] had an EC50 with Hennes-20 cells of 12.5 µM. Besides, the minimal inhibitory concentration (MIC) with C. albicans ATCC 24433 is 6.25 µM; in the experiment on S. aureus ATCC25923, 25 mg/L; against E. coli ATCC25922 (ATCC25922, E. coli ATCC25922), 100 mg/L; against A. baumannii ATCC19606 it was over 100 mg/L.

Take `c1cc2nc3c(N4CCNCC4)cc(N4CCCC4)cc3[s+]c2cc1N1CCCC1` [Compound 120]: in the experiment on Hennes-20 cells, the EC50 was 12.5 µM. Further, the MIC is 100 µM in the experiment with C. albicans ATCC 24433; 100 mg/L against S. aureus ATCC25923; over 100 mg/L against E. coli ATCC25922 (ATCC25922, E. coli ATCC25922); over 100 mg/L against A. baumannii ATCC19606.

In the experiment with Hennes-20 cells, `CC1(C)C2CN(c3cc(N4CC5C(C4)C5(C)C)c4nc5ccc(N6CCCC6)cc5[s+]c4c3)CC21` (stereo not drawn) [Compound 125] had an EC50 of 0.1 µM. Besides, the MIC is 6.25 µM against C. albicans ATCC 24433; 12.5 mg/L in the experiment on S. aureus ATCC25923; over 100 mg/L in the experiment with E. coli ATCC25922 (ATCC25922, E. coli ATCC25922); over 100 mg/L in the experiment with A. baumannii ATCC19606.

Regarding `CC(C)(C)c1cc(N2CC3C(C2)C3(C)C)cc2[s+]c3cc(N4CC5C(C4)C5(C)C)cc(N4CC5C(C4)C5(C)C)c3nc12` (stereo not drawn) [Compound 126], the midpoint of the response in the experiment on Hennes-20 cells, the EC50, lay at 0.5 µM. For the same compound, the MIC in the experiment on C. albicans ATCC 24433 was 12.5 µM; against S. aureus ATCC25923, 100 mg/L; against E. coli ATCC25922 (ATCC25922, E. coli ATCC25922), over 100 mg/L; in the experiment with A. baumannii ATCC19606, over 100 mg/L.

For the compound `c1cc2nc3ccc(N4CC5CNCC5C4)cc3[s+]c2cc1N1CC2CNCC2C1` (stereo not drawn) [Compound 134], in the experiment on Hennes-20 cells, the EC50 came out at 12.5 µM. Besides, the MIC against C. albicans ATCC 24433 is over 100 µM; in the experiment on S. aureus ATCC25923 it was over 100 mg/L; in the experiment with E. coli ATCC25922 (ATCC25922, E. coli ATCC25922), over 100 mg/L; with A. baumannii ATCC19606, over 100 mg/L.

Consider `CC1(C)C2CN(c3ccc4nc5ccc(N6CCCC6)cc5[s+]c4c3)CC21` (stereo not drawn) [Compound 150], for which the MIC amounted to 1.6 µM against C. albicans ATCC 24433; 1.6 mg/L in the experiment with S. aureus ATCC25923; 100 mg/L in the experiment with E. coli ATCC25922 (ATCC25922, E. coli ATCC25922); 25 mg/L against A. baumannii ATCC19606.
